Tests used:
[1] = Precipitation of Cloquintocet-mexyl hydrate in emulsified concentrate (EW) of Example One; assay type: physicochemical; conditions: EW of Table E1: Aromatic 200 15.3, n-butyl lactate 15.3, ATLOX 4914 1.4, Cloquintocet-mexyl 4.2, ATLAS G-5000 2.2, water 61.6 weight percent
Protocol: The Following Items where Mix Together (See Table E1). [table] The Cloquintocet-mexyl was dissolved into a mixture of Aromatic 200 and n-butyl lactate. The emulsifiers were then mixed into the mixture. Finally, water was added and the mixture was turned into a emulsified concentrate (EW) by mechanical stirring. Precipitation of Cloquintocet-mexyl hydrate was not observed.

[2] = Precipitation of Cloquintocet-mexyl hydrate from A200, BL or A200+BL solutions after addition of water (Example Two); assay type: physicochemical; parameters: key to Cloquintocet-mexyl hydrate precipitation: “P” means that Cloquintocet-mexyl hydrate precipitated from the mixture.; “S” means that Cloquintocet-mexyl hydrate did not precipitated from the mixture; conditions: about 10 weight percent water added, 4° C.
Protocol: CQC was dissolved into A200, BL, or a mixture of A200+BL. Thereafter, about 10 weight percent water was added to each sample based on the weight of the sample (A200+BL+CQC). Each sample was prepared at 4° C.

Precipitation of Cloquintocet-mexyl hydrate [1]: not observed
CQC content kept in solution when mixed with water ([2]; 50/50 mixture of A200 and BL): up to 14 weight percent
CQC content at which Cloquintocet-mexyl hydrate is kept in solution when mixed with water ([2]; A200(100%)): less than 7 weight percent
CQC content at which Cloquintocet-mexyl hydrate is kept in solution when mixed with water ([2]; BL(100%)): less than 7 weight percent
Cloquintocet-mexyl hydrate precipitation ([2]; CQC 3 wt %, BL 100%): S
Cloquintocet-mexyl hydrate precipitation ([2]; CQC 4 wt %, A200 100%): S
Cloquintocet-mexyl hydrate precipitation ([2]; CQC 5 wt %, BL 100%): S
Cloquintocet-mexyl hydrate precipitation ([2]; CQC 6 wt %, A200 100%): S
Cloquintocet-mexyl hydrate precipitation ([2]; CQC 7 wt %, BL 100%): P
Cloquintocet-mexyl hydrate precipitation ([2]; CQC 8 wt %, A200 100%): P
Cloquintocet-mexyl hydrate precipitation ([2]; CQC 9 wt %, BL 100%): P
Cloquintocet-mexyl hydrate precipitation ([2]; CQC 10 wt %, A200 100%): P
Cloquintocet-mexyl hydrate precipitation ([2]; CQC 11 wt %, BL 100%): P
Cloquintocet-mexyl hydrate precipitation ([2]; CQC 12 wt %, A200 (12%) + BL (88%)): P
Cloquintocet-mexyl hydrate precipitation ([2]; CQC 12 wt %, A200 (50%) + BL (50%)): S
Cloquintocet-mexyl hydrate precipitation ([2]; CQC 12 wt %, A200 (88%) + BL (12%)): P
Cloquintocet-mexyl hydrate precipitation ([2]; CQC 13 wt %, BL 100%): P
Cloquintocet-mexyl hydrate precipitation ([2]; CQC 14 wt %, A200 (12%) + BL (88%)): P
Cloquintocet-mexyl hydrate precipitation ([2]; CQC 14 wt %, A200 (50%) + BL (50%)): S
Cloquintocet-mexyl hydrate precipitation ([2]; CQC 14 wt %, A200 (88%) + BL (12%)): P
Cloquintocet-mexyl hydrate precipitation ([2]; CQC 15.5 wt %, A200 100%): P
Cloquintocet-mexyl hydrate precipitation ([2]; CQC 15.5 wt %, A200 (12%) + BL (88%)): P
Cloquintocet-mexyl hydrate precipitation ([2]; CQC 15.5 wt %, A200 (50%) + BL (50%)): P
Cloquintocet-mexyl hydrate precipitation ([2]; CQC 15.5 wt %, A200 (88%) + BL (12%)): P
Cloquintocet-mexyl hydrate precipitation ([2]; CQC 15.5 wt %, BL 100%): P
SMILES: CCCCCC(C)OC(=O)COc1ccc(Cl)c2cccnc12 (stereo not shown) [CQC, Cloquintocet-mexyl]

From patent US8153557B2, “Agriculturally useful compositions” (priority 2006, dated 2012)
